Earlier results in PMC4381553, “Acute and Chronic Toxicity, Cytochrome P450 Enzyme Inhibition, and hERG Channel Blockade Studies with a Polyherbal, Ayurvedic Formulation for Inflammation” (BioMed Research International, 2015).
Read-outs that look alike come from different tables or passages of the source.

Tests used:
CYP3a [1] = details: only at very high dose (200 μg/mL), human liver microsome
CYP3a [2] = details: only at very high dose (200 μg/mL), rat liver microsome

Structure (SMILES): CC1=C(CO)C(=O)O[C@@H]([C@@H](C)[C@H]2CC[C@H]3[C@@H]4CC=C5C[C@@H](O[C@@H]6O[C@H](CO[C@@H]7O[C@H](CO)[C@@H](O)[C@H](O)[C@H]7O)[C@@H](O)[C@H](O)[C@H]6O)C[C@H](O)[C@]5(C)[C@H]4CC[C@]23C)C1 [Withanoside IV]
- inhibitory activity of CYP3a (CYP3a [1]): some inhibitory activity
- inhibitory activity of CYP3a (CYP3a [2]): some inhibitory activity
